In ChEMBL document CHEMBL1144673, “Discovery of novel alpha-glucosidase inhibitors based on the virtual screening with the homology-modeled protein structure” (Bioorg Med Chem, 2008):

Molecular target: Alpha-glucosidase MAL12 (Saccharomyces cerevisiae S288c) (UniProt P53341)
Test: Inhibition of bakers yeast alpha-glucosidase at 50 uM

Sequence of Alpha-glucosidase MAL12 (Saccharomyces cerevisiae S288c) (P53341 whole entry): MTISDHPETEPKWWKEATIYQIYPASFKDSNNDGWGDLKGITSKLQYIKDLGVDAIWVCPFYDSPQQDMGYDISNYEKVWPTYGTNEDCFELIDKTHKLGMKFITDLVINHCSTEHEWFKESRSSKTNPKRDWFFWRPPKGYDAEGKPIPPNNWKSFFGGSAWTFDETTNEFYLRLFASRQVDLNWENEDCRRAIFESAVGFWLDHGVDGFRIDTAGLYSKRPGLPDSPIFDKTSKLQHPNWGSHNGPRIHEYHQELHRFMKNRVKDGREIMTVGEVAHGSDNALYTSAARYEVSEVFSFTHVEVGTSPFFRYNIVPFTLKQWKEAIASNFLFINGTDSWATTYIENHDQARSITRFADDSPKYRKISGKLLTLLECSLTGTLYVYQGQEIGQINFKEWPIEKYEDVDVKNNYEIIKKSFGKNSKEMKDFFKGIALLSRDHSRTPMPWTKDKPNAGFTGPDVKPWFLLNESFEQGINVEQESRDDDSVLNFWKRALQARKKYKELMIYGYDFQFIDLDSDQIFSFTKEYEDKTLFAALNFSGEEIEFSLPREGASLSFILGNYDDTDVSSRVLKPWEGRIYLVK

Q: How did the inhibition turn out when `Cn1cc(/C=C/C(=O)NC(=O)c2ccccc2O)c2ccccc21` was run?
A: The inhibition was 71.4%.

Q: Which inhibition does the source give for `O=C(CSc1nc2ccccc2c(=O)n1-c1ccccc1)NCc1ccccc1` here?
A: Its inhibition is 50.9%.

Q: For `O=C(Nc1ccccc1O)c1ccc(Oc2cccc(C(=O)Nc3ccccc3O)c2)cc1`, which inhibition is on record?
A: Its inhibition is 70.1%.

Q: How did the inhibition turn out when `N#CC1=C(N)n2c(s/c(=C\c3ccc(O)cc3)c2=O)=C(C(N)=O)C1c1ccc(O)cc1` (stereo not drawn) was run?
A: Its inhibition is 59.2%.

Q: With `O=C(Nc1nccs1)c1c(O)c2ccccc2n(Cc2ccccc2)c1=O` as the compound, how does the inhibition read?
A: The inhibition was 52.3%.

Q: How did the inhibition turn out when `O=C(CSc1nnc(COc2cccc3cccnc23)n1-c1ccccc1)c1ccc(Cl)cc1` was run?
A: Its inhibition is 66.5%.

Q: With `Cc1ccc(/N=c2\cc(-c3ccc4c(c3)OCO4)oc3ccc(O)cc23)cc1C` as the compound, how does the inhibition read?
A: The inhibition was 58%.

Q: With `N#CC1=C(N)n2c(s/c(=C\c3ccccc3F)c2=O)=C(C(N)=O)C1c1ccccc1F` (stereo not drawn) as the compound, how does the inhibition read?
A: The inhibition was 62.2%.

Q: With `O=C1NC(=O)N(c2ccccc2F)C(=O)/C1=C\c1ccccc1OCc1ccc(C(=O)O)cc1` as the compound, how does the inhibition read?
A: Its inhibition is 54%.

Q: With `Oc1ccc(-c2nnc(Nc3cccc(O)c3)c3ccccc23)cc1` as the compound, how does the inhibition read?
A: The inhibition was 61.4%.

Q: How did the inhibition turn out when `COc1ccc(N2C(=O)NC(=O)/C(=C\c3cn(CC(=O)Nc4ccccc4)c4ccccc34)C2=O)cc1` was run?
A: Its inhibition is 50.6%.

Q: With `Cc1ccc(-n2c(SCC(=O)Nc3ccc(F)c(F)c3)nnc2-c2ccccc2)cc1` as the compound, how does the inhibition read?
A: Its inhibition is 63.1%.

Q: How did the inhibition turn out when `O=C(Cn1c(=O)n(CC(=O)NCc2ccccc2)c2cc(Cl)ccc21)NCc1ccccc1` was run?
A: The inhibition was 62.4%.
